Results taken from patent US9486461B2, “Methods and compositions for inducing apoptosis by stimulating ER stress” (UNIVERSITY OF SOUTHERN CALIFORNIA, priority 2007, dated 2016).
Values joined by “and” are separate entries in the source; they are usually repeats but may differ in a detail not shown here. Equal entries are not always repeated.

How the values were obtained:
CHOP protein = test: Western blot of CHOP in various cancer cell lines; format: cell-based; conditions: glioblastoma, breast carcinoma, pancreatic carcinoma, Burkitt's lymphoma, multiple myeloma cell lines; Cxb 40 and 60 μM, DMC 30 and 50 μM; 48 hours
Protocol: Total cellular lysates were prepared and analyzed by Western blot analysis with specific antibodies to CHOP. As a control for equal loading, all blots were also analyzed with antibodies to actin (only one of these control blots is shown at the bottom). The tumor type of each cell line is indicated on the right.
(§1) Total cell lysates were prepared by lysis of cells with radioimmunoprecipitation assay buffer (28), and protein concentrations were determined using the bicinchoninic acid protein assay reagent (Pierce, Rockford, Ill.). For Western blot analysis, 50 Ag of each sample were processed as described (29). The primary antibodies were purchased from Cell Signaling Technologies (Beverly, Mass.), Cayman Chemical (Ann Arbor, Mich.), or Santa Cruz Biotechnology, Inc. (Santa Cruz, Calif.) and used according to the manufacturer's recommendations. The secondary antibodies were coupled to horseradish peroxidase and detected by chemiluminescence using the SuperSignal West substrate from Pierce. All immunoblots were repeated at least once to confirm the results.

[1] = tested on: CHOP, GRP78, caspase 4 in U251 glioblastoma cells; test: Western blot of ER stress indicators in U251 cells; format: cell-based, human; conditions: for CHOP expression, time kinetics: U251, 50 μmol/L, 4 h up to 24 h
Protocol: U251 glioblastoma cells were cultured in the presence of 1 μM thapsigargin (Tg) or 60 μM DMC for various times, as indicated. Total cell lysates were prepared and analyzed by Western blot with specific antibodies to the ER stress proteins GRP78, CHOP, and caspase 4 (Casp 4). Actin was used as a loading control.
Shown are (A) time kinetics at 50 μM of each drug, and (B) concentration dependence after 15 hours of incubation.
Shown are (FIG. 7A) time kinetics at 50 μM of each drug, and (FIG. 7B), concentration dependence after 15 hours of incubation.
U251 glioblastoma cells were cultured for 24 hours in the presence of increasing concentrations of (A) bortezomib (BZM) or (B) DMC. Total cell lysates were analyzed by Western blot with specific antibodies to ubiquitin, GRP78, CHOP, and caspase 4. Actin was used as a loading control.
as §1
Total cell lysates were prepared and analyzed by Western blot analysis as described earlier (19). Immunohistochemical analysis of protein expression in tumor tissues was performed with the use of the Vectastain avidin-biotin complex method kit (Vector Laboratories) as described previously (32). The primary antibodies were purchased from Cell Signaling Technology or Santa Cruz Biotechnology, Inc. and used according to the manufacturers' recommendations. All immunoblots and stainings were repeated at least once to confirm the results.

cellular translation = test: Incorporation of 35S-methionine into newly translated proteins; format: cell-based; conditions: 2 h of treatment
[2] = tested on: CHOP protein in U87 glioblastoma tumor tissue; test: Immunohistochemical staining for CHOP in xenograft tumor tissue; format: in vivo, nude mice; conditions: for CHOP staining of tumor tissues: 30-180 mg/kg per day for 50 h, DMC and celecoxib already at lowest dosages
Text: In all cases, representative sections are shown.
Immunohistochemical analysis of protein expression in tumor tissues was done with the use of the Vectastain avidin-biotin complex method kit (Vector Laboratories, Burlingame, Calif.) according to the manufacturer's instructions. This procedure uses biotinylated secondary antibodies and a preformed avidin: biotinylated enzyme complex that has been termed the avidin-biotin complex method technique. As the primary antibody, we used anti-CHOP antibody (Santa Cruz Biotechnology) diluted 1:100 in 2% normal goat blocking serum.

[3] = Drug concentrations in plasma and tumor tissue by LC-MS; format: in vivo; conditions: 50 h; for Tumor tissue levels (approximately μmol/L) / Tumor tissue levels: U87 tumor tissue; for Maximum plasma levels: tumor-bearing nude mice
Protocol: Blood was collected in heparinized syringes using cardiac puncture of nude mice. The blood was allowed to settle at room temperature for 30 min followed by centrifugation at 2,000 rpm for 5 min at 4° C. The plasma was separated from the cells and transferred to a fresh tube. […] After thorough vortexing, plasma proteins were precipitated using 425 μL acetonitrile and vortexing for 1 min. The entire mixture was centrifuged at 4,500 rpm for 5 min to separate the protein precipitate, and 400 μL of the supernatant were transferred to a fresh tube. The sample was evaporated using a steady stream of air, and the dried residue was reconstituted using 150 μL of mobile phase consisting of 80:20 (v/v) methanol:10 mmol/L ammonium acetate (pH 4.5). To remove any undissolved precipitates, the samples were again centrifuged at 4,500 rpm for 5 min, and the supernatant was transferred to a fresh tube. Ten microliters of each sample were analyzed in duplicate by liquid chromatography mass spectrometry.
To determine the amount of drug in each sample, an Agilent 1100 high-pressure liquid chromatography system (Agilent Technologies, Santa Clara, Calif.) coupled onto a Sciex API 3000 triple quadruple tandem mass spectrometer (Applied Biosystems, Foster City, Calif.) was used. To separate the analytes, a Thermo HyPURITY C18 column (50×4.6 mm, 3 micron; Thermo Fisher Scientific, Inc., Waltham, Mass.) was used. The mobile phase consisted of 80:20 (v/v) methanol:10 mmol/L ammonium acetate (pH 4.5). […] The analytes were then introduced into the Sciex API 3000, which was set in the negative ion mode. […] The lower level of quantification of this assay was established at 5 ng/mL.

[4] = tested on: U87MG glioblastoma cell line; test: MTT assay, U87MG; format: cell-based; conditions: Homo sapiens, U-87 MG, 48 h, read-out: IC50 (50% inhibition of cell growth)
Protocol: For comparison purposes to the known anti-multiple myeloma effects of bortezomib, the RPMI/8226 multiple myeloma cell line was included in (A).
3-(4,5-Dimethylthiazol-2-yl)-2,5-diphenyltetrazolium bromide (MTT) assays were performed in 96-well plates with the use of 3.0×10^3 to 8.0×10^3 cells per well as described in detail elsewhere (19).

[5] = 30 mg/kg/d, average of two measurements
[6] = 30 mg/kg/d, half dose every 12 h into the stomach, average of two measurements
[7] = 90 mg/kg/d, average of two measurements
[8] = 90 mg/kg/d, half dose every 12 h into the stomach, average of two measurements
[9] = 150 mg/kg/d, average of two measurements
[10] = 150 mg/kg/d, half dose every 12 h into the stomach, average of two measurements
[11] = 180 mg/kg/d, average of two measurements
[12] = 180 mg/kg/d, half dose every 12 h into the stomach, average of two measurements

Row | Compound | induction of CHOP protein (CHOP protein) | CHOP expression, time kinetics [1] | CHOP staining of tumor tissues ([2]; U87 xenograft) | Tumor tissue levels (approximately μmol/L) ([3]; 30 mg/kg/d) | Tumor tissue levels [3, 5] | Maximum plasma levels ([3]; 30 mg/kg/d) | Maximum plasma levels [3, 6] | Tumor tissue levels (approximately μmol/L) ([3]; 90 mg/kg/d) | Tumor tissue levels [3, 7] | Maximum plasma levels ([3]; 90 mg/kg/d) | Maximum plasma levels [3, 8] | Tumor tissue levels (approximately μmol/L) ([3]; 150 mg/kg/d) | Tumor tissue levels [3, 9] | Maximum plasma levels ([3]; 150 mg/kg/d) | Maximum plasma levels [3, 10] | Tumor tissue levels (approximately μmol/L) ([3]; 180 mg/kg/d) | Tumor tissue levels [3, 11] | Maximum plasma levels ([3]; 180 mg/kg/d) | Maximum plasma levels [3, 12] | IC50 [4] | further results
1 | Cc1ccc(-c2cc(C(F)(F)F)nn2-c2ccc(S(N)(=O)=O)cc2)cc1 [celecoxib, 4-[5-(4-methylphenyl)-3-(trifluoromethyl)-1H-pyrazol-1-yl]benzenesulfonamide] | potently induce CHOP | noticeable lower compared with DMC | positive for CHOP | ~0.046 µmol/L | 17.53 ng/mg | 18.2 µmol/L | 6,950 μg/L | ~0.116 µmol/L | 44.03 ng/mg | 24.8 µmol/L | 9,450 μg/L | ~0.161 µmol/L | 61.23 ng/mg | 36.8 µmol/L | 14,000 μg/L | ~0.25 µmol/L | 94.78 ng/mg | 45 µmol/L | 17,000 μg/L | ~50 µM | reduction of ongoing translation (cellular translation; 80 μmol/L): ~90%; Tumor tissue levels (approximately μmol/L) ([3]; 180 mg/kg/d, listed as Cxb): ~0.249 µmol/L; Maximum plasma levels ([3]; 180 mg/kg/d, listed as Cxb): 44.6 µmol/L
2 | Cc1ccc(C)c(-c2cc(C(F)(F)F)nn2-c2ccc(S(N)(=O)=O)cc2)c1 [DMC, 4-[5-(2,5-dimethylphenyl)-3-(trifluoromethyl)-1H-pyrazol-1-yl]benzenesulfonamide] | potently induce CHOP | pronounced induction of CHOP | positive for CHOP | ~0.021 µmol/L | 8.27 ng/mg | 7.6 µmol/L | 3,035 μg/L | ~0.037 µmol/L | 14.44 ng/mg | 8.0 µmol/L | 3,190 μg/L | ~0.099 µmol/L | 39.04 ng/mg | 23.8 µmol/L | 9,500 μg/L | ~0.280 µmol/L | 110.42 ng/mg | 45 µmol/L and 45.5 µmol/L | 18,200 μg/L | < 40 µM | increase in CHOP or GRP78 protein, concentration dependence ([1]; U251, 15 hours, concentrations up to 75 or 100 μmol/L): potently induced; expression of GRP78 and CHOP ([1]; U251, increasing concentrations, 24 hours): strong induction of GRP78 and CHOP; time at which activation (cleavage) of caspase-4 was first noted ([1]; U251, 1 μM thapsigargin or 60 μM DMC): ~24 h; CHOP and GRP78 expression levels ([1]; U251, 1 μM thapsigargin or 60 μM DMC, prominent increase at 6 h and thereafter): substantially elevated; reduction of ongoing translation (cellular translation; 60 μmol/L): ~90%; CHOP expression in tumor tissue ([2]; U87MG xenograft, 1 mg/kg BZM and 7.5 mg/kg DMC individually or in combination, 50 h): did not cause much elevated CHOP expression; CHOP protein expression in tumor tissue ([2]; U87 xenograft, animals fed drug for 50 h): large increase in CHOP protein expression
